5 molecules from US10300155B2, “Alpha-synuclein ligands” (Washington University, priority 2015, dated 2019) can be followed below.

The term Ki denotes a measure of affinity in units of concentration, obtained from inhibition or displacement. For orientation: EC50 means the concentration giving half of the maximal effect.

Several values for one entry are separate records, joined by “and”; a condition that tells them apart may be missing. Equal entries are not always repeated. Where two headings read alike, the source gives them in different places.

For data set [1], the target named is T1, α-synuclein fibrils (Homo sapiens, UniProt P37840).
T1 construct: made in house; host or cells: E. coli BL21(DE3)RIL
As to the kind of experiment: ThT competitive assay for α-synuclein fibrils (Table 1). The data set is classed as binding. The conditions noted are these: for EC50: α-synuclein fibrils. In outline:
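Competition against ThT binding to recombinant (E. coli) human α-synuclein fibrils, pelleted from a 72 hour fibril reaction and quantified by BCA. Mixtures incubated 60 minutes at room temperature with shaking; ThT fluorescence read. Ki derived from EC50 via Cheng-Prusoff using the ThT saturation Kd.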

Data set [2] concerns the target T1, α-synuclein fibrils. As to the kind of experiment: Thioflavin T competition assay (Example 130, Table 9), α-synuclein fibrils. The data set is classed as binding. On the procedure: Freshly transformed BL21 colonies were inoculated into 2 L baffled flasks containing 250 ml sterilized TB (1.2% bactotryptone, 2.4% yeast extract, 0.4% glycerol, 0.17 M KH2PO4, 0.72 M K2HPO4) with 50 μg/ml ampicillin, and incubated overnight at 37° C. with shaking.
Competition assays used a fixed concentration of α-syn, Aβ, or tau fibrils (1 μM), consisting of 3 μM, 50 nM and 4 μM of ThioflavinT respectively. […] To optimize the determination of selectivity, assays for all three fibril species were set up in parallel using a common set of intermediate compound dilutions for each analog. Reactions were incubated at room temperature for 1.5 h before quantifying bound ligand as described above for the saturation binding assay. […] All data points were performed in triplicate. Nonspecific fluorescence was measured in parallel reactions containing ThioT plus each concentration of competitor but no fibrils, and these measurements were subtracted from the reactions with fibrils to yield fibril-specific fluorescence. Data were analyzed using Graphpad. Prism software (version 4.0) to obtain EC50 values by fitting the data to the equation Y=bottom+(top-bottom)/(1+10^(x−log EC50)).

Data set [3] in a line: Biodistribution in male Balb/C mice. In kind it is in vivo. The conditions noted are these: for Biodistribution: Blood / Biodistribution: Brain / Biodistribution: Fat / Biodistribution: Heart / Biodistribution: Kidney / Biodistribution: Liver / Biodistribution: Lung / Biodistribution: Muscle / Biodistribution: Pancreas / Biodistribution: Spleen: tail vein, mean ± SD, n = 4. On the procedure: For the biodistribution studies, 100˜130 μCi of [^11C] TZ-20-35 in ˜100 μL of 10% ethanol/saline solution (v/v) was injected via the tail vein into mature male Balb/C mice (19-24 g) under anesthesia (2.5% isoflurane in oxygen at a flow rate of 1 mL/min). A group of at least four […] were used for each time point. […] The whole brain was quickly harvested. At the same time, samples of blood, heart, lung, liver, spleen, pancreas, kidney, muscle, fat, and tail were dissected. All the tissue samples were collected in tared tubes and counted in an automated gamma counter (Beckman Gamma 8000 well counter) with standards, prepared by diluting the injectate. The counted tissues were then weighed, and the % ID/g was calculated (Table 4).

Another data set deals with tau fibrils (Homo sapiens, UniProt P10636). In words: ThT competitive assay for tau fibrils (Table 3). The data set is classed as binding. Also noted: made in house; host or cells: E. coli. The conditions noted are these: for EC50: tau fibrils. On the procedure:
Tau fibril recombinant protein was produced in E. coli. Additional preparation was performed in a similar fashion to Example 115.

[4] abbreviates: average, read-out: Ki (nM) α-syn (avg).
Setting [5] is: individual determinations, read-out: Ki (nM) α-syn.
Where [6] appears, read: average, read-out: EC50 (nM) EC50 (avg).
The mark [7] stands for this setting: individual determinations, read-out: EC50 (nM) EC50.
Where [8] appears, read: average, read-out: α-synuclein EC50 (avg).
Where [9] appears, read: average, read-out: α-synuclein Ki (avg).
Setting [10] is: individual determinations, read-out: α-synuclein EC50.
[11] abbreviates: individual determinations, read-out: α-synuclein Ki.

tau fibrils, sequence (P10636 560-692 limits assumed): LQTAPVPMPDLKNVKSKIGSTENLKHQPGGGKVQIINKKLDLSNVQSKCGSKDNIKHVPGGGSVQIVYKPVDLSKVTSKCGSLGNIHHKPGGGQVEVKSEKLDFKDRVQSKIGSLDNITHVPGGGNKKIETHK

For the molecule `COc1ccc2nc(C#Cc3ccnc(OC)c3)ccc2c1` [TZ-36-142], the Ki at α-synuclein fibrils [1] (setting [4]), on α-synuclein fibrils [1] (setting [5]), at α-synuclein fibrils [2] (setting [9]) and at α-synuclein fibrils [2] (setting [11]) was 233 nM throughout. The EC50 on α-synuclein fibrils [1] (setting [6]), on α-synuclein fibrils [1] (setting [7]), on α-synuclein fibrils [2] (setting [8]) and at α-synuclein fibrils [2] (setting [10]) was 609 nM in each case.
For `COC(=O)c1ccc(/C=C/c2ccncc2)cc1` [[^11C]TZ-20-35], in data set [3] (5 to 60 min post injection), the “brain uptake and washout (assessment in words)” value was “Brain uptake and the washout kinetics were very good”. Also, in data set [3] (5 min post injection), the “Biodistribution: Blood” value is on record as 5.21 ± 0.20 % ID/g; the “Biodistribution: Brain” value was 5.71 % ID/g and 5.71 ± 0.44 % ID/g; the “Biodistribution: Fat” value is reported as 0.90 ± 0.42 % ID/g; the “Biodistribution: Heart” value amounted to 4.72 ± 0.34 % ID/g. For the same molecule, in data set [3] (5 min post injection), the “Biodistribution: Kidney” value is 4.73 ± 0.41 % ID/g, the “Biodistribution: Liver” value is given as 4.25 ± 0.36 % ID/g, the “Biodistribution: Lung” value turned out to be 4.78 ± 0.21 % ID/g and the “Biodistribution: Muscle” value turned out to be 4.06 ± 0.13 % ID/g. In addition, in data set [3] (5 min post injection), the “Biodistribution: Pancreas” value is on record as 3.64 ± 0.44 % ID/g and the “Biodistribution: Spleen” value amounted to 4.60 ± 0.16 % ID/g. Further, in data set [3] (30 min post injection), the organ recovery is 52%; the “Biodistribution: Blood” value stood at 2.79 ± 0.43 % ID/g; the “Biodistribution: Brain” value is 2.43 % ID/g and 2.43 ± 0.41 % ID/g; the “Biodistribution: Fat” value stood at 0.86 ± 0.07 % ID/g. Besides, in data set [3] (30 min post injection), the “Biodistribution: Heart” value is listed as 2.61 ± 0.54 % ID/g, the “Biodistribution: Kidney” value is 4.43 ± 0.42 % ID/g, the “Biodistribution: Liver” value is 8.72 ± 0.37 % ID/g and the “Biodistribution: Lung” value amounted to 2.94 ± 0.38 % ID/g. In data set [3] (30 min post injection), the “Biodistribution: Muscle” value is recorded as 2.25 ± 0.33 % ID/g, the “Biodistribution: Pancreas” value was 3.54 ± 0.90 % ID/g and the “Biodistribution: Spleen” value is listed as 3.44 ± 0.23 % ID/g. In data set [3] (60 min post injection), the organ recovery worked out at 34%; the “Biodistribution: Blood” value was 1.75 ± 0.25 % ID/g; the “Biodistribution: Brain” value is 1.68 % ID/g and 1.68 ± 0.26 % ID/g; the “Biodistribution: Fat” value stood at 0.58 ± 0.09 % ID/g. Besides, in data set [3] (60 min post injection), the “Biodistribution: Heart” value is 1.80 ± 0.18 % ID/g, the “Biodistribution: Kidney” value is given as 4.23 ± 0.47 % ID/g, the “Biodistribution: Liver” value came out at 10.17 ± 1.08 % ID/g and the “Biodistribution: Lung” value was found to be 2.21 ± 0.44 % ID/g. In addition, in data set [3] (60 min post injection), the “Biodistribution: Muscle” value stood at 1.18 ± 0.10 % ID/g, the “Biodistribution: Pancreas” value was 5.42 ± 1.25 % ID/g and the “Biodistribution: Spleen” value was 3.30 ± 0.36 % ID/g.
As to `COc1cc(/C=C/c2ccc3cc(OC(C)C)ccc3n2)ccn1` [TZ-36-138], the Ki on α-synuclein fibrils [1] (setting [4]), on α-synuclein fibrils [1] (setting [5]), on α-synuclein fibrils [2] (setting [9]) and at α-synuclein fibrils [2] (setting [11]) was 49 nM in each case. Moreover, the EC50 at α-synuclein fibrils [1] (setting [6]), on α-synuclein fibrils [1] (setting [7]), on α-synuclein fibrils [2] (setting [8]) and at α-synuclein fibrils [2] (setting [10]) was 128 nM throughout.
Regarding `COc1ccc(/C=C/c2ccsc2)cc1` [TZ-34-28], the Ki is 172 nM on α-synuclein fibrils [1] (setting [4]); 43.1 nM and 167 nM and 113 nM and 104 nM and 256 nM and 347 nM on α-synuclein fibrils [1] (setting [5]); 876 nM on tau fibrils (average, read-out: Ki (nM) Tau (avg)); 600 nM and 1150 nM on tau fibrils (individual determinations, read-out: Ki (nM) Tau). For the same molecule, the EC50 was 449 nM at α-synuclein fibrils [1] (setting [6]); 113 nM and 437 nM and 297 nM and 271 nM and 670 nM and 907 nM on α-synuclein fibrils [1] (setting [7]); 2150 nM at tau fibrils (average, read-out: EC50m (nM) EC50 (avg)); 1470 nM and 2830 nM at tau fibrils (individual determinations, read-out: EC50m (nM) EC50).
Take `COc1ccc2nc(/C=C/c3ccnc(Br)c3)ccc2c1` [TZ-36-36]: the Ki on α-synuclein fibrils [1] (setting [4]) was 152 nM; on α-synuclein fibrils [1] (setting [5]), 128 nM and 175 nM; on α-synuclein fibrils [2] (setting [9]), 152 nM; at α-synuclein fibrils [2] (setting [11]), 128 nM and 175 nM. Moreover, the EC50 is 396 nM on α-synuclein fibrils [1] (setting [6]); 335 nM and 457 nM on α-synuclein fibrils [1] (setting [7]); 396 nM on α-synuclein fibrils [2] (setting [8]); 335 nM and 457 nM on α-synuclein fibrils [2] (setting [10]).
